Legend:
[1] = test system: wild type gram negative organisms (E. coli, P. aeruginosa, and H. influenzae); assay: MIC of EtBr in presence and absence of EPI; assay type: cell-based; conditions: all wild type gram-negative organisms, compared with gram-positive
Excerpt: (§1) EtBr is a general substrate for many different efflux pumps in bacteria. Markham et al., “Multiple Novel Inhibitors of the NorA Multidrug Transporter of Staphylococcus aureus”, Antimicrob. Agents Chemother. 43:2404-2408 (1999). Since EtBr is a non-specific DNA intercalator, the only known mechanism of resistance to EtBr is via efflux. Markham et al., “Multiple Novel Inhibitors of the NorA Multidrug Transporter of Staphylococcus aureus”, Antimicrob. Agents Chemother. 43:2404-2408 (1999).

[2] = test system: permeability mutant strains of E. coli; assay: MIC of EtBr in presence and absence of EPI; assay type: cell-based
Excerpt: as §1

B. subtilis = assay: MIC of EtBr in presence and absence of EPI; assay type: cell-based; conditions: B. subtilis wild type, EPI up to 100 μg/ml, data not shown
Excerpt: as §1

[3] = alone and in combination with chemotherapeutic agents for cancer therapies; cited from earlier work
[4] = test system: S. aureus clinical isolates; assay: MIC90 studies: fluoroquinolone susceptibility of clinical isolate panel with EPI; assay type: cell-based; conditions: EPI at 50 μg/ml
In short: (§2)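 Fluoroquinolone MICs with efflux pump inhibitor measured against panels of resistant clinical isolates by NCCLS protocols. MIC90 taken across each panel. Oxacillin and vancomycin MICs run alongside to flag methicillin-resistant S. aureus and vancomycin-resistant E. faecalis isolates.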

[5] = test system: E. faecalis clinical isolates; assay: as above; assay type: cell-based; conditions: EPI at 50 μg/ml
In short: as §2

[6] = E. faecalis clinical isolate 10
[7] = E. faecalis clinical isolate 11
[8] = E. faecalis clinical isolate 12
[9] = E. faecalis clinical isolate 13
[10] = E. faecalis clinical isolate 14
[11] = E. faecalis clinical isolate 15
[12] = E. faecalis clinical isolate 16
[13] = E. faecalis clinical isolate 17
[14] = E. faecalis clinical isolate 18
[15] = E. faecalis clinical isolate 19
[16] = E. faecalis clinical isolate 20
[17] = E. faecalis clinical isolate 21
[18] = E. faecalis clinical isolate 22
[19] = E. faecalis clinical isolate 23
[20] = E. faecalis clinical isolate 24
[21] = E. faecalis clinical isolate 25
[22] = E. faecalis clinical isolate 26

With `COc1cc(C(=O)C(=O)N2CCCC[C@H]2C(=O)OC(CCCc2cccnc2)CCCc2cccnc2)cc(OC)c1OC` [A-106] the “activity against efflux of EtBr” value [1] was “much less active”, the efflux inhibitory activity [2] was “some efflux inhibitory activity was observed” and the “reduction of the MIC of EtBr” value (B. subtilis) was 8 fold. The “adverse events in clinical studies” value [3] was “only mild adverse events”, the “change of norfloxacin MIC in combination with EPI” value ([4]; S. aureus isolates # 3, 6, 9) was “reductions in MICs” and the “change of ciprofloxacin MIC in combination with EPI” value ([4]; S. aureus isolates # 3 and 5) was “reductions in MICs”. For the same compound, the “isolates with >2-fold decrease in the MIC for ciprofloxacin” value ([4]; S. aureus isolates, Table 5A) was 10/15, the “isolates with >2-fold decrease in the MIC for norfloxacin” value ([4]; S. aureus isolates, Table 5A) was 13/15 and the “restoration of clinical susceptibility” value ([4]; highly fluoroquinolone-resistant strains in the panel) was “insufficient to restore clinical susceptibility”. For the same compound, the “Ciprofloxacin MIC with EPI” value ([4]; S. aureus clinical isolate 1) was 0.5 µg/mL, the “Norfloxacin MIC with EPI” value ([4]; S. aureus clinical isolate 1) was 2 µg/mL and the “Ciprofloxacin MIC with EPI” value ([4]; S. aureus clinical isolate 2) was 0.12 µg/mL. For the same compound, the “Norfloxacin MIC with EPI” value ([4]; S. aureus clinical isolate 2) was “≦0.25 μg/ml”, the “Ciprofloxacin MIC with EPI” value ([4]; S. aureus clinical isolate 3) was “≦0.06 μg/ml” and the “Norfloxacin MIC with EPI” value ([4]; S. aureus clinical isolate 3) was “≦0.25 μg/ml”. For the same compound, the “Ciprofloxacin MIC with EPI” value ([4]; S. aureus clinical isolate 4) was 64 µg/mL, the “Norfloxacin MIC with EPI” value ([4]; S. aureus clinical isolate 4) was 128 µg/mL and the “Ciprofloxacin MIC with EPI” value ([4]; S. aureus clinical isolate 5) was “≦0.06 μg/ml”. For the same compound, the “Norfloxacin MIC with EPI” value ([4]; S. aureus clinical isolate 5) was “≦0.25 μg/ml”, the “Ciprofloxacin MIC with EPI” value ([4]; S. aureus clinical isolate 6) was 8 µg/mL and the “Norfloxacin MIC with EPI” value ([4]; S. aureus clinical isolate 6) was 8 µg/mL. The “Ciprofloxacin MIC with EPI” value ([4]; S. aureus clinical isolate 7) was “≦0.06 μg/ml”, the “Norfloxacin MIC with EPI” value ([4]; S. aureus clinical isolate 7) was “≦0.25 μg/ml” and the “Ciprofloxacin MIC with EPI” value ([4]; S. aureus clinical isolate 8) was 0.25 µg/mL. For the same compound, the “Norfloxacin MIC with EPI” value ([4]; S. aureus clinical isolate 8) was 1 µg/mL, the “Ciprofloxacin MIC with EPI” value ([4]; S. aureus clinical isolate 9) was “≦0.06 μg/ml” and the “Norfloxacin MIC with EPI” value ([4]; S. aureus clinical isolate 9) was “≦0.25 μg/ml”. The “Ciprofloxacin MIC with EPI” value ([4]; S. aureus clinical isolate 10) was 8 µg/mL, the “Norfloxacin MIC with EPI” value ([4]; S. aureus clinical isolate 10) was 16 µg/mL and the “Ciprofloxacin MIC with EPI” value ([4]; S. aureus clinical isolate 11) was 8 µg/mL. For the same compound, the “Norfloxacin MIC with EPI” value ([4]; S. aureus clinical isolate 11) was 32 µg/mL, the “Ciprofloxacin MIC with EPI” value ([4]; S. aureus clinical isolate 12) was “≦0.06 μg/ml” and the “Norfloxacin MIC with EPI” value ([4]; S. aureus clinical isolate 12) was “≦0.25 μg/ml”. For the same compound, the “Ciprofloxacin MIC with EPI” value ([4]; S. aureus clinical isolate 13) was 32 µg/mL, the “Norfloxacin MIC with EPI” value ([4]; S. aureus clinical isolate 13) was 64 µg/mL and the “Ciprofloxacin MIC with EPI” value ([4]; S. aureus clinical isolate 14) was 32 µg/mL. The “Norfloxacin MIC with EPI” value ([4]; S. aureus clinical isolate 14) was 64 µg/mL, the “Ciprofloxacin MIC with EPI” value ([4]; S. aureus clinical isolate 15) was 32 µg/mL and the “Norfloxacin MIC with EPI” value ([4]; S. aureus clinical isolate 15) was 64 µg/mL. The “Ciprofloxacin MIC with EPI” value ([5]; E. faecalis clinical isolate 1) was 0.5 µg/mL, the “Norfloxacin MIC with EPI” value ([5]; E. faecalis clinical isolate 1) was 2 µg/mL and the “Ciprofloxacin MIC with EPI” value ([5]; E. faecalis clinical isolate 2) was 0.5 µg/mL. The “Norfloxacin MIC with EPI” value ([5]; E. faecalis clinical isolate 2) was 1 µg/mL, the “Ciprofloxacin MIC with EPI” value ([5]; E. faecalis clinical isolate 3) was 32 µg/mL and the “Norfloxacin MIC with EPI” value ([5]; E. faecalis clinical isolate 3) was 64 µg/mL. For the same compound, the “Ciprofloxacin MIC with EPI” value ([5]; E. faecalis clinical isolate 4) was 32 µg/mL, the “Norfloxacin MIC with EPI” value ([5]; E. faecalis clinical isolate 4) was 64 µg/mL and the “Ciprofloxacin MIC with EPI” value ([5]; E. faecalis clinical isolate 5) was 32 µg/mL. For the same compound, the “Norfloxacin MIC with EPI” value ([5]; E. faecalis clinical isolate 5) was 64 µg/mL, the “Ciprofloxacin MIC with EPI” value ([5]; E. faecalis clinical isolate 6) was 0.5 µg/mL and the “Norfloxacin MIC with EPI” value ([5]; E. faecalis clinical isolate 6) was 1 µg/mL. The “Ciprofloxacin MIC with EPI” value ([5]; E. faecalis clinical isolate 7) was 0.5 µg/mL, the “Norfloxacin MIC with EPI” value ([5]; E. faecalis clinical isolate 7) was 1 µg/mL and the “Ciprofloxacin MIC with EPI” value ([5]; E. faecalis clinical isolate 8) was 32 µg/mL. The “Norfloxacin MIC with EPI” value ([5]; E. faecalis clinical isolate 8) was 64 µg/mL, the “Ciprofloxacin MIC with EPI” value ([5]; E. faecalis clinical isolate 9) was 1 µg/mL and the “Norfloxacin MIC with EPI” value ([5]; E. faecalis clinical isolate 9) was 2 µg/mL. For the same compound, the “Ciprofloxacin MIC with EPI” value [5, 6] was 16 µg/mL, the “Norfloxacin MIC with EPI” value [5, 6] was 32 µg/mL and the “Ciprofloxacin MIC with EPI” value [5, 7] was 16 µg/mL. The “Norfloxacin MIC with EPI” value [5, 7] was 64 µg/mL, the “Ciprofloxacin MIC with EPI” value [5, 8] was 0.5 µg/mL and the “Norfloxacin MIC with EPI” value [5, 8] was 1 µg/mL. The “Ciprofloxacin MIC with EPI” value [5, 9] was 0.5 µg/mL, the “Norfloxacin MIC with EPI” value [5, 9] was 1 µg/mL and the “Ciprofloxacin MIC with EPI” value [5, 10] was 0.25 µg/mL. The “Norfloxacin MIC with EPI” value [5, 10] was 0.5 µg/mL, the “Ciprofloxacin MIC with EPI” value [5, 11] was 1 µg/mL and the “Norfloxacin MIC with EPI” value [5, 11] was 2 µg/mL. For the same compound, the “Ciprofloxacin MIC with EPI” value [5, 12] was 1 µg/mL, the “Norfloxacin MIC with EPI” value [5, 12] was 2 µg/mL and the “Ciprofloxacin MIC with EPI” value [5, 13] was 0.5 µg/mL. The “Norfloxacin MIC with EPI” value [5, 13] was 2 µg/mL, the “Ciprofloxacin MIC with EPI” value [5, 14] was 32 µg/mL and the “Norfloxacin MIC with EPI” value [5, 14] was 64 µg/mL. For the same compound, the “Ciprofloxacin MIC with EPI” value [5, 15] was 1 µg/mL, the “Norfloxacin MIC with EPI” value [5, 15] was 2 µg/mL and the “Ciprofloxacin MIC with EPI” value [5, 16] was 0.5 µg/mL. The “Norfloxacin MIC with EPI” value [5, 16] was 2 µg/mL, the “Ciprofloxacin MIC with EPI” value [5, 17] was 0.5 µg/mL and the “Norfloxacin MIC with EPI” value [5, 17] was 1 µg/mL. For the same compound, the “Ciprofloxacin MIC with EPI” value [5, 18] was 32 µg/mL, the “Norfloxacin MIC with EPI” value [5, 18] was 64 µg/mL and the “Ciprofloxacin MIC with EPI” value [5, 19] was 32 µg/mL. The “Norfloxacin MIC with EPI” value [5, 19] was 32 µg/mL, the “Ciprofloxacin MIC with EPI” value [5, 20] was 16 µg/mL and the “Norfloxacin MIC with EPI” value [5, 20] was 32 µg/mL. For the same compound, the “Ciprofloxacin MIC with EPI” value [5, 21] was 32 µg/mL, the “Norfloxacin MIC with EPI” value [5, 21] was 64 µg/mL and the “Ciprofloxacin MIC with EPI” value [5, 22] was 32 µg/mL. The “Norfloxacin MIC with EPI” value [5, 22] was 64 µg/mL and the “trend in the reduction of MICs for ciprofloxacin and norfloxacin” value ([5]; E. faecalis isolates, Table 5B) was “two-fold trend in the reduction of MICs”.

Reference: patent US20090291964A1, “Potentiators of Antibacterial Activity” (priority 2003, published 2009)
